# Source: patent US9943529B2, “Methods for reducing cellular proliferation and treating certain diseases” (BRIGHAM YOUNG UNIVERSITY, priority 2013, dated 2018)
# Key:
# SNB-19 [1] = settings: 48 hours, five 10-fold dilutions starting from 100 μM
# HCC-2998 = settings: 48 hours, five 10-fold dilutions starting from 100 μM
# NCI-H23 = settings: 48 hours, five 10-fold dilutions starting from 100 μM
# OVCAR-3 [2] = settings: 48 hours, five 10-fold dilutions starting from 100 μM
# NCI-H460 = test: cells; settings: Homo sapiens, NCI-H460, 48 h
# OVCAR-4 [3] = settings: 48 hours, five 10-fold dilutions starting from 100 μM
# NCI-H226 = test: cells; settings: Homo sapiens, NCI-H226, 48 h
# SK-OV-3 = test: cells; settings: Homo sapiens, SK-OV-3, 48 h
# M14 [4] = settings: 48 hours, five 10-fold dilutions starting from 100 μM
# NCI-H522 [5] = test: cells; settings: Homo sapiens, NCI-H522, 48 h
# HOP-62 [6] = test: cells; settings: Homo sapiens, HOP-62, 48 h
# RPMI-8226 = test: NCI screen antiproliferative activity, sulforhodamine B, Leukemia panel; format: cell-based, human; settings: 48 hours, five 10-fold dilutions starting from 100 μM
# U251 = test: cells; settings: Homo sapiens, U-251, 48 h
# HS 578T = test: NCI screen antiproliferative activity, sulforhodamine B, Breast Cancer panel; format: cell-based, human; settings: 48 hours, five 10-fold dilutions starting from 100 μM
# UO-31 = test: cells; settings: Homo sapiens, UO-31, 48 h
# SK-MEL-2 = test: cells; settings: Homo sapiens, SK-MEL-2, 48 h
# EKVX = test: cells; settings: Homo sapiens, 48 h
# MDA-MB-435 = test: cells; settings: Homo sapiens, MDA-MB-435, 48 h
# OVCAR-3 [7] = test: cells; settings: Homo sapiens, OVCAR-3, 48 h
# HT29 = settings: 48 hours, five 10-fold dilutions starting from 100 μM
# RXF 393 [8] = settings: 48 hours, five 10-fold dilutions starting from 100 μM
# BT-549 = settings: 48 hours, five 10-fold dilutions starting from 100 μM
# OVCAR-8 = settings: 48 hours, five 10-fold dilutions starting from 100 μM
# SF-539 [9] = test: cells; settings: Homo sapiens, SF-539, 48 h
# OVCAR-4 [10] = test: cells; settings: Homo sapiens, OVCAR-4, 48 h
# SNB-19 [11] = test: cells; settings: Homo sapiens, SNB-19, 48 h
# M14 [12] = test: cells; settings: Homo sapiens, M14, 48 h
# HOP-62 [13] = settings: 48 hours, five 10-fold dilutions starting from 100 μM
# RXF 393 [14] = test: cells; settings: Homo sapiens, RXF 393, 48 h
# KM12 = test: NCI screen antiproliferative activity, sulforhodamine B, Colon Cancer panel; format: cell-based, human; settings: 48 hours, five 10-fold dilutions starting from 100 μM
# T-47D = test: cells; settings: Homo sapiens, T47D, 48 h
# HCT-15 [15] = test: cells; settings: Homo sapiens, HCT-15, 48 h
# 786-0 = settings: 48 hours, five 10-fold dilutions starting from 100 μM
# NCI-H522 [16] = settings: 48 hours, five 10-fold dilutions starting from 100 μM
# CAKI-1 = test: cells; settings: Homo sapiens, CAKI-1, 48 h
# UACC-257 = test: cells; settings: Homo sapiens, UACC-257, 48 h
# HCT-15 [17] = settings: 48 hours, five 10-fold dilutions starting from 100 μM
# SF-539 [18] = settings: 48 hours, five 10-fold dilutions starting from 100 μM
# TK-10 [19] = test: cells; settings: Homo sapiens, TK-10, 48 h
# TK-10 [20] = settings: 48 hours, five 10-fold dilutions starting from 100 μM
# DU-145 = test: cells; settings: Homo sapiens, DU-145, 48 h
# SF-268 = settings: 48 hours, five 10-fold dilutions starting from 100 μM
# LOX IMVI = test: NCI screen antiproliferative activity, sulforhodamine B, Melanoma panel; format: cell-based, human; settings: 48 hours, five 10-fold dilutions starting from 100 μM
structure (smiles),measurement,setting,value
CCCCCCCCNCCC[C@@H](C)[C@H]1CC[C@H]2[C@@H]3[C@H](OCCCN)C[C@@H]4C[C@H](OCCCN)CC[C@]4(C)[C@H]3C[C@H](OCCCN)[C@]12C [CSA-13],TGI,SNB-19 [1],5.05 µM
same,TGI,HCC-2998,3.98 µM
same,TGI,NCI-H23,3.12 µM
same,TGI,OVCAR-3 [2],14.8 µM
same,GI50,NCI-H460,1.21 µM
same,CC50,NCI-H460; read-out: LC50,15.5 µM
same,TGI,OVCAR-4 [3],25.2 µM
same,GI50,NCI-H226,2.22 µM
same,CC50,NCI-H226; read-out: LC50,66.8 µM
same,GI50,SK-OV-3,3.45 µM
same,CC50,SK-OV-3; read-out: LC50,93.1 µM
same,TGI,M14 [4],3.52 µM
same,GI50,NCI-H522 [5],2.59 µM
same,CC50,NCI-H522 [5]; read-out: LC50,> 100 µM
same,GI50,HOP-62 [6],0.806 µM
same,CC50,HOP-62 [6]; read-out: LC50,9.74 µM
same,TGI,RPMI-8226,0.911 µM
same,GI50,RPMI-8226; Homo sapiens,0.266 µM
same,GI50,U251,1.37 µM
same,CC50,U251; read-out: LC50,6.81 µM
same,TGI,HS 578T,2.35 µM
same,GI50,HS 578T; Homo sapiens,0.854 µM
same,GI50,UO-31,1.49 µM
same,CC50,UO-31; read-out: LC50,> 100 µM
same,GI50,SK-MEL-2,4.51 µM
same,CC50,SK-MEL-2; read-out: LC50,> 100 µM
same,GI50,EKVX,1.32 µM
same,CC50,EKVX; read-out: LC50,8.62 µM
same,GI50,MDA-MB-435,0.318 µM
same,CC50,MDA-MB-435; read-out: LC50,5.68 µM
same,GI50,OVCAR-3 [7],2.24 µM
same,CC50,OVCAR-3 [7]; read-out: LC50,88 µM
same,TGI,HT29,5.31 µM
same,TGI,RXF 393 [8],15.6 µM
same,TGI,BT-549,3.28 µM
same,TGI,OVCAR-8,4.01 µM
same,GI50,SF-539 [9],0.318 µM
same,CC50,SF-539 [9]; read-out: LC50,4.89 µM
same,GI50,OVCAR-4 [10],5.51 µM
same,CC50,OVCAR-4 [10]; read-out: LC50,83 µM
same,GI50,SNB-19 [11],1.49 µM
same,CC50,SNB-19 [11]; read-out: LC50,89.3 µM
same,GI50,M14 [12],1.18 µM
same,CC50,M14 [12]; read-out: LC50,12.6 µM
same,TGI,HOP-62 [13],2.96 µM
same,GI50,RXF 393 [14],1.54 µM
same,CC50,RXF 393 [14]; read-out: LC50,> 100 µM
same,TGI,KM12,2.76 µM
same,GI50,KM12; Homo sapiens,0.586 µM
same,GI50,T-47D,1.92 µM
same,CC50,T-47D; read-out: LC50,> 100 µM
same,GI50,HCT-15 [15],2.63 µM
same,CC50,HCT-15 [15]; read-out: LC50,63.9 µM
same,TGI,786-0,2.26 µM
same,TGI,NCI-H522 [16],10.5 µM
same,GI50,CAKI-1,2.05 µM
same,CC50,CAKI-1; read-out: LC50,68 µM
same,GI50,UACC-257,2.71 µM
same,CC50,UACC-257; read-out: LC50,97.9 µM
same,TGI,HCT-15 [17],14.8 µM
same,TGI,SF-539 [18],1.41 µM
same,GI50,TK-10 [19],0.974 µM
same,CC50,TK-10 [19]; read-out: LC50,> 100 µM
same,TGI,TK-10 [20],4.70 µM
same,GI50,DU-145,1.14 µM
same,CC50,DU-145; read-out: LC50,4.85 µM
same,TGI,SF-268,3.70 µM
same,TGI,LOX IMVI,1.73 µM
same,GI50,LOX IMVI; Homo sapiens,0.378 µM
